From BindingDB's records for doi:10.1021/jm050499d (University of Zürich, 2005)

Test: Predicted binding affinity for beta secretase by linear interaction energy continuum electrostatics

Ki: 9.4 µM
Compound: COCCCNC(=O)c1cc(NC(=O)Nc2cc(C(F)(F)F)cc(C(F)(F)F)c2)ccc1N(C)C [5-[3-(3,5-Bis-trifluoromethyl-phenyl)-ureido]-2-dimethylamino-N-(3-methoxy-propyl)-benzamide]
